Test [1] concerns the target T1, human D2 receptor (short isoform) (Homo sapiens, UniProt P14416).
T1 construct: membrane homogenate, 3H-spiperone displacement
The test can be described thus: D2 receptor binding, displacement of 3H-spiperone (GH4C1 cells), for D2/D4 selectivity. The settings on record: for D2/D4: D4 selectivity, ratio D2/D4. The procedure: (§1) The potency of the test compound to reduce ^3 H-spiperone binding directly correlated to its binding affinity for the receptor.
GH4 C1 (rat pituitary) cells stably transfected with the human D2 receptor (short isoform) were grown in CO2 independent media in roller bottles (1500 cm^2) for 10 days. 100 μM ZnSO4 was added to the cells (the D2 promoter being zinc inducible). After 16 hours, fresh media was added to allow the cells to recover for 24 hours. The cells were harvested using versene and then centrifuged in a Sorval centrifuge for 10 minutes, at 5000 rpm (GS3 rotor). Pellets were quickly frozen in liquid nitrogen and stored at -80° C. until used in the binding assays. When used in the assay, cells were thawed on ice for 20 minutes. […] 10 mL of incubation buffer was added to the pellets which were then vortexed, resuspended and homogenized with a Kinematica CH-6010 Kriens-LU homogenizer for 15 seconds at setting 7. The receptor protein concentration was determined using the Pierce BCA assay.
(§2) Total Spiperone Binding Assay
(§3) The incubation was started by the addition of 500 μl (50 μg protein) membrane homogenate to a solution of 900 μl incubation buffer and 100 μl (0.25 nM final conc.) ^3 H-spiperone (90 Ci/mmol Amersham diluted in borosilicate glass vial) in 12×75 mm polypropylene tubes. The tubes were vortexed and incubated at room temperature for 90 minutes. The binding reaction was stopped by filtering using a Brandell Cell Harvester. The samples were filtered under vacuum over glass fibre filters (Whatman GF/B) presoaked for 2 hours in 0.3% polyethyleneimine (PEI) in 50 mM Tris buffer (pH7.4). The filters were then washed 3 times with 5 mL ice cold 50 mM Tris buffer (pH7.4). Individual filter disks were put in scintillation vials (Biovials, Bechman). Ready Protein Plus liquid scintillant (5 mL, Beckman) was added and the vials counted by liquid scintillation spectrophotometry (Beckman LSC 6500) after equilibrating for three hours at room temperature to determine total binding (BT).
Non-Specific Binding Assay for D2
This assay employed the same procedures as the non-specific binding assay for D4 with the exception that 2 μM (final conc.) of (-) sulpiride (Research Chemicals Inc.) was used in place of dopamine.
(§4) Displacement Binding Assay
(§5) The incubation was started by the addition to 12×75 mm polypropylene tubes 500 μl (50 μg protein) membrane homogenate to a solution of 400 μl incubation buffer, 100 μl (0.25 final conc.) ^3 H-spiperone (90Ci/mmol, Amersham, diluted in borosilicate glass vial to) and […] of test compound that was prepared from 1 mM stock dissolved in DMSO and stored at -20° C. in polypropylene cryogenic storage vials until dilution in incubation buffer in borosilicate glass vials. The tubes were vortexed and incubated at room temperature for 90 minutes at which time the binding reaction was stopped by filtering. The filters were washed and counted using the same procedure as in the total binding assay described above to give the displacement binding value (BD).
Specific binding in the absence of test compound (BO) was the difference of total binding (BT) minus non-specific binding (NSB) and similarly specific binding (in the presence of test compound) (B) was the difference of displacement binding (BD) minus non-specific binding (NSB). IC50 was determined from an inhibition response curve, logit-log plot of %B/BO vs concentration of test compound.
(§6) Ki was calculated by the Cheng and Prustoff transformation: […]
(§7) where [L] is the concentration of ^3 H-spiperone used in the assay and KD is the to dissociation constant of ^3 H-spiperone determined independently under the same binding conditions.

Test [2] has as its target T2, human D4 receptor (D4.2 sub-type) (Homo sapiens, UniProt P21917, DEL265-296).
T2 construct: expressed in transfected cells; host or cells: HEK 298 (human embryonic kidney) cells, [sic]; homogenate of stably transfected cells
T2 sequence (P21917 with tags, fused parts or gaps DEL265-296): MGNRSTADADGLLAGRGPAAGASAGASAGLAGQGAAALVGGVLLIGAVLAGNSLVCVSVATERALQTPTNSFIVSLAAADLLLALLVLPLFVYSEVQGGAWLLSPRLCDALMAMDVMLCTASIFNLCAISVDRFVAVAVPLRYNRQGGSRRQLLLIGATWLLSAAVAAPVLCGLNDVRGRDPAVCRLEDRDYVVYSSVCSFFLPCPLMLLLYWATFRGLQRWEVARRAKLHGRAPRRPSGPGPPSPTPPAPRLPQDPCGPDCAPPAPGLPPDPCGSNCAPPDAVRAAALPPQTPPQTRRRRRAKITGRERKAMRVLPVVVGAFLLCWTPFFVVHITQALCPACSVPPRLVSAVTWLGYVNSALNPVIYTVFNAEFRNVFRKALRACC
The test can be described thus: D4 receptor binding, displacement of 3H-spiperone. The note with it: for D4 affinity and selectivity: compared with corresponding 4-methyl piperazine compound; for Ki: human D4 receptor, 3H-spiperone 0.25 nM. As for the experimental part:
as §1
The cells were then centrifuged in a Sorval centrifuge for 10 minutes, 5000 rpm (GS3 rotor) and the pellets quickly frozen in liquid nitrogen and stored at -80° C. until used in binding assay. When used in the assay, cells were thawed on ice for 20 minutes and then 10 mL of incubation buffer (50 mM Tris, 1 mM EDTA, 4 mM MgCl2, 5 mM KCl, 1.5 mM CaCl2, 120 mM NaCl, pH7.4) was added. […] Concentration of receptor protein was determined using the Pierce BCA assay.
as §2
as §3, with “The” for “The incubation was started by the addition of 500 μl (50 μg protein) membrane homogenate to a solution of 900 μl incubation buffer and 100 μl (0.25 nM final conc.) ^3 H-spiperone (90 Ci/mmol Amersham diluted in borosilicate glass vial) in 12×75 mm polypropylene tubes. The”
Non-Specific Binding Assay for D4
The tubes were vortexed and incubated at room temperature for 90 minutes at which time the binding reaction was stopped by filtering. The filters were washed and counted using the same procedure as in the total binding assay described above to give the non-specific binding value (NSB).
as §4, §5
IC50 was determined from an inhibition response curve, logit-log plot of %B/BO vs concentration of test compound.
as §6, §7

Test [3] deals with D4 receptor. The settings on record: background, cited from earlier work.
Setting [4] is: compared with corresponding 4-methyl piperazine compound.

Consider five compounds from patent publication US5798350A, “Dopamine receptor ligands” (Allelix Biopharmaceuticals, Inc., priority 1996, dated 1998).

T1 sequence (P14416 with tags, fused parts or gaps DEL242-270): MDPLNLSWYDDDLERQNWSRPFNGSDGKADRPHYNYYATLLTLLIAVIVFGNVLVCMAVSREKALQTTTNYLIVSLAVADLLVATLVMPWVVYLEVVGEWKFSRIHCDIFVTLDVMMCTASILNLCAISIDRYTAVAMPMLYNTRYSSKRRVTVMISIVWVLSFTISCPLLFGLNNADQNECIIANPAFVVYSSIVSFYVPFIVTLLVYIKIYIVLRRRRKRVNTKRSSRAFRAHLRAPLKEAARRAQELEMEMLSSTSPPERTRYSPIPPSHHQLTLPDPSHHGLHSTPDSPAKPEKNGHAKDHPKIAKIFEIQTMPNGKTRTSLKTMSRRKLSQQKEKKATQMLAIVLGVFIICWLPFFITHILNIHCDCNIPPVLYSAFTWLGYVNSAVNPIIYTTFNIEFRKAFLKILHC

As to `Cc1cc2c(cc1C)Nc1ccccc1C(N1CCN(Cc3ccc4c(c3)OCO4)CC1)=N2` [7,8-dimethyl-11-(4-piperonyl)-1-piperazinyl)-5H-dibenzo[b,f][1,4]diazepine], in test [1], the D2/D4 is 14.1. For the same compound, the D4 selectivity entry in test [1] (compared with clozapine) is “better D4 selectivity than clozapine”. Moreover, in test [1] (setting [4]), the D4 selectivity result is on record as “better D4selectivity than the corresponding 4-methyl piperazine compound”. In addition, in test [2], the “D4 affinity and selectivity” value was “better D4 affinity and selectivity than the corresponding 4-methyl piperazine compound”; the Ki was 266 nM.
Turning to `Clc1ccc2c(c1)N=C(N1CCN(Cc3ccc4c(c3)OCO4)CC1)c1ccccc1S2` [8-chloro-11-(4-piperonyl)-1-piperazinyl)dibenzo[b,f][1,4]thiazepine], the D2/D4 in test [1] is given as 63. The D4 selectivity entry in test [1] (compared with clozapine) is “better D4 selectivity than clozapine”. The D4 selectivity entry in test [1] (setting [4]) was “better D4selectivity than the corresponding 4-methyl piperazine compound”. Further, in test [2], the “D4 affinity and selectivity” value was “better D4 affinity and selectivity than the corresponding 4-methyl piperazine compound”; the inhibitory constant (Ki) was determined as 24 nM.
Consider `Cc1ccc2c(c1)N=C(N1CCN(Cc3ccc4c(c3)OCO4)CC1)c1ccccc1O2` [8-methyl-11-(4-piperonyl)-1-piperazinyl)dibenz[b,f][1,4]oxazepine], for which the D2/D4 in test [1] was 9.8. For the same compound, the D4 selectivity result in test [1] (setting [4]) is “better D4selectivity than the corresponding 4-methyl piperazine compound”. In addition, in test [2], the “D4 affinity and selectivity” value is “better D4 affinity and selectivity than the corresponding 4-methyl piperazine compound”; the Ki stood at 143 nM.
Take `c1ccc2c(c1)N=C(N1CCN(Cc3ccc4c(c3)OCO4)CC1)c1ccccc1N2` [11-(4-piperonyl)-1-piperazinyl-5H-dibenzo[b,e][1,4]diazepine]: the D2/D4 in test [1] came to 6. The D4 selectivity result in test [1] (setting [4]) is reported as “better D4selectivity than the corresponding 4-methyl piperazine compound”. In test [2], the “D4 affinity and selectivity” value was “better D4 affinity and selectivity than the corresponding 4-methyl piperazine compound”; the inhibition constant Ki is 63 nM.
For `CN1CCN(C2=Nc3cc(Cl)ccc3Oc3ccccc32)CC1` [isoloxapine], in test [3], the “preference for binding the D4 receptor relative to the D2 receptor” value is given as “about 10 fold”. Besides, the Ki in test [3] (read-out: Ki value (D4 affinity)) is approximately 20 nM.
